# According to patent US8435964B2, “Ectonucleotidase pyrophosphate/phosphodiestrase-1 (ENPP-1) as a target for the treatment of aortic valve stenosis and cardiovascular calcification” (Universite Laval, priority 2009, dated 2013):
# Entries after “also recorded” stand apart in the source; their conditions may differ.
# Legend:
# [1] = tested on: Human valve interstitial cells (VICs); assay: In vitro calcification of valve interstitial cells (calcium content, o-cresolphthalein complexone method); format: cell-based; conditions: day 14 after treatment with calcifying medium; ARL 67156 10 μM and 25 μM
# Procedure: (§1) Human valve interstitial cells (VICs) were isolated by collagenase digestion from explanted hearts during transplant procedures. Cells were cultured in DMEM containing 10% FBS, 2 mM L-glutamine and 1 mM sodium pyruvate (Invitrogen, Toronto, Ont, Canada). Cells were seeded in 12 well plates (2×10^4 cells/well). To provoke calcification, cells were incubated with a pro-calcifying medium containing: DMEM+5% FBS, 10^−7 M insulin, 50 μg/ml ascorbic acid and NaH2PO4 at 2 mM (in some experiments where it is specified NaH2PO4 was used at 1, 2 and 5 mM). […] In some experiments ARL 67156 (a competitive inhibitor of ENPP-1) (10 μM and 25 μM) was added to the growth medium Studies were conducted at day 0, 7, 14 in triplicate. For calcium quantification, cells were decalcified with 0.6 M HCl for 24 h. The calcium content of the HCl supernatants was determined using the o-cresolphthalein complexone method. After decalcification, cells were washed with PBS and solubilised with 0.1 N NaOH/0.1% SDS. The protein content was determined using Biorad® assay kit (Biorad, Mississauga, Ont, Canada). Cells calcium content was normalized to protein content.
# alkaline phosphatase = assay: Alkaline phosphatase activity in valve interstitial cells exposed to calcifying medium; format: cell-based, human; conditions: VICs after exposition to calcifying medium
# Procedure: as §1
# ENPP-1 = molecular target: T1, ENPP-1 (Homo sapiens, UniProt P22413); assay: Phosphodiesterase activity in valve interstitial cells exposed to calcifying medium; format: cell-based; conditions: VICs, calcifying medium (NaH2PO4 2 mM), 14 days; ARL 67156 10 μM and 25 μM
# T1 construct: endogenous in cells; host or cells: primary human valve interstitial cells (VICs)
# T1 sequence (P22413 1-925): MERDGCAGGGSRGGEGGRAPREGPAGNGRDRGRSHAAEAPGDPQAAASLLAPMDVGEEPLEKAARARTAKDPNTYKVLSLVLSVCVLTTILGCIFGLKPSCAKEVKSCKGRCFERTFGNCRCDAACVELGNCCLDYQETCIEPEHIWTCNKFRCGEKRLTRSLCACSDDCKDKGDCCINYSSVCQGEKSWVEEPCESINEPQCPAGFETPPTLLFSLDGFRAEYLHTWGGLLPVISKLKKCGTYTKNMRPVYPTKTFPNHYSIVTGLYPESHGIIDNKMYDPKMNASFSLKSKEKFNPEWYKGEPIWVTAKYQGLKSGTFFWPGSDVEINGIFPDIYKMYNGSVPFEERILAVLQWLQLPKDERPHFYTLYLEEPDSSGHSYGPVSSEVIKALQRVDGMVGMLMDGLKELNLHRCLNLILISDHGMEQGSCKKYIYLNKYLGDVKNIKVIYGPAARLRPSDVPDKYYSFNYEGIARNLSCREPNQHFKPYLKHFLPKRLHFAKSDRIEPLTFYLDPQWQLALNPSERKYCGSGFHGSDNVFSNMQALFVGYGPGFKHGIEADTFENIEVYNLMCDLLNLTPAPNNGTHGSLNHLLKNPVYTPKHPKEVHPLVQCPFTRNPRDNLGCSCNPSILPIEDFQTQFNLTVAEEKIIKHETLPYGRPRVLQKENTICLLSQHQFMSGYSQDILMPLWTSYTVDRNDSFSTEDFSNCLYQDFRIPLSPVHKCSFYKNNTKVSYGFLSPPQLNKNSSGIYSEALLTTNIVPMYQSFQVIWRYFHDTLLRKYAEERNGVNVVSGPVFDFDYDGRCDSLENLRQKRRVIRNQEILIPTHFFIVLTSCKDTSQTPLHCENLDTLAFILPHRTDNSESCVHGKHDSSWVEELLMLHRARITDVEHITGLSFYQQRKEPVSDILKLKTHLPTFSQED
# Procedure: Phosphodiesterase activity was measured using the substrate p-nitrophenyl phenylphosphonate (PNPP-PP) (Sigma, Oakville, Ont, Canada). Proteins were isolated from normal control valves (n=14), AS valves (n=18) or valve interstitial cells (VICs) and used for enzyme activity. Cells were harvested with trypsine-EDTA (Invitrogen, Toronto, Ont, Canada), washed 2 times in washing buffer (NaCl 0.15M, TRIS-HCl pH 8.1, 20 mM, CaCl2 1 mM) and resuspended in assay buffer (NaCl 0.15M, TRIS-HCl pH 8.1, 20 mM, CaCl2 0.5 mM, 1 mM p-nitrophenyl phenylphosphonate). The same amount of proteins isolated from tissues were washed twice in washing buffer and resuspended in 600 μl of assay buffer. […] Absorbance was measured at 400 nm. Results were calculated using a molar absorption coefficient for p-nitrophenol of 18320 M^−1 cm^−1. […]
# Human valve interstitial cells (VICs) were isolated by collagenase digestion from explanted hearts during transplant procedures. […] For calcium quantification, cells were decalcified with 0.6 M HCl for 24 h. The calcium content of the HCl supernatants was determined using the o-cresolphthalein complexone method. […] The protein content was determined using Biorad® assay kit (Biorad, Mississauga, Ont, Canada). […]
# WVK rat model = assay: Warfarin and vitamin K (WVK) rat model of aortic calcification; format: in vivo
# Procedure: Animal experiments were approved by the Animal Care and Use Committee of Laval and Montreal Universities. Male Wistar rats (initial weight 200 g) were obtained from Charles River Breeding Laboratories (St Constant, Qc, Canada). The animals received warfarin (20 mg/kg/day in drinking water) and vitamin K (phylloquinone) (15 mg/kg/day subcutaneous injection) (WVK) (n=10) at day 1, 3, 5, 7, 14, 21, and 28. Dosages were adjusted every second day. Controls consisted of age-matched untreated rats (n=7). In two other groups of rats, ARL 67156 was administered at 0.55 μg/kg/day (n=10) and 1.1 μg/kg/day (n=10) during 28 days with osmotic pumps implanted subcutaneously. At day 28, animals were anesthetized with pentobarbital (65 mg/kg) for blood plasma sampling and the harvesting of aorta and heart. Segments of the aorta were frozen at −80° C. for the determination of calcium amount. The heart with the aortic root and valve was fixed in formaldehyde 10% for histological processing and immunohistology. […] Morphometric analyses of the aortic root (at the level of aortic valve and sinuses of Valsalva) were carried out using the Image-Pro Plus (MediaCybernetics, Bethesda, Md., USA) image analysis software to quantify the calcified areas (with the von Kossa staining) normalized to the total surface area of the section.
smiles,measurement,setting,value
CCN(CC)c1ncnc2c1ncn2C1OC(COP(=O)(O)OP(=O)(O)C(Br)(Br)P(=O)(O)O)[C@@H](O)[C@H]1O (some centres unmarked) [ARL 67156],calcification of isolated VICs,[1],significantly reduced; also recorded: dose-dependently reduced
same,alkaline phosphatase (ALP) activity,alkaline phosphatase,did not affect; also recorded: not affected
same,phosphodiesterase activity,ENPP-1,dose-dependently decreased; also recorded: significantly reduced
same,calcification of the aortic root at the level of aortic cusp,"WVK rat model; rat treated with 1.1 μg/kg/d, von Kossa histology (FIG. 5F)",without calcification
same,calcification of the aortic valve cusps,"WVK rat model; rats under WVK regimen, 28 days, 0.55 μg/kg/d and 1.1 μg/kg/d by osmotic pump",prevented the development of aortic valve calcifications; also recorded: not detected
